We go through 2 molecules from patent US20080096943A1, “Organic Compunds” (priority 2004, published 2008).

Usually IC50 stands for the concentration that inhibits the measured activity by half. Read a high IC50 as lower potency.

This test concerns the target T1, human CCR-3 (Homo sapiens, UniProt P51677).
T1 construct: expressed in transfected cells; membranes used
T1 sequence (P51677 1-355): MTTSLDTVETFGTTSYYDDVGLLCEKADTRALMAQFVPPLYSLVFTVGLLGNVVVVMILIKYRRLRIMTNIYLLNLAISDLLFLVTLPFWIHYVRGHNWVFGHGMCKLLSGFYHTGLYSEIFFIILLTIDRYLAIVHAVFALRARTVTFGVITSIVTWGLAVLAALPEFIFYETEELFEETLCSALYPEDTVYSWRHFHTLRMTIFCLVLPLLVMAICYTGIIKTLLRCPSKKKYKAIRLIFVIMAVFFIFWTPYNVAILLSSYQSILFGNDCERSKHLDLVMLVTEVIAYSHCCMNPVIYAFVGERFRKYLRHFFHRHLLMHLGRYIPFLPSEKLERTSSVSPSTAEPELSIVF
The experiment in a line: [125I]-human eotaxin binding to CCR-3, SPA assay. Conditions: inhibition of [125I]-human eotaxin binding; membranes of RBL-2H3 cells stably expressing CCR3; 4 hours at room temperature. The text has this:
Recombinant cells expressing human CCR-3 are captured by wheatgerm agglutinin (WGA) polyvinyltoluidene (PVT) SPA beads (available from Amersham), through a specific interaction between the WGA and carbohydrate residues of glycoproteins on the surface of the cells. [^125I]-human eotaxin (available from Amersham) binds specifically to CCR-3 receptors bringing the [^125I]-human eotaxin in close proximity to the SPA beads. Emitted â-particles from the [^125I]-human eotaxin excite, by its proximity, the fluorophore in the beads and produce light.
Preparation of Assay Buffer: 5.96 g HEPES and 7.0 g sodium chloride are dissolved in distilled water and 1 M aqueous CaCl2 (1 ml) and 1M aqueous MgCl2 (5 ml) are added. The pH is adjusted to 7.6 with NaOH and the solution made to a final volume of 1 l using distilled water. 5 g bovine serum albumin and 0.1 g sodium azide are then dissolved in the solution and the resulting buffer stored at 4° C. […]
Preparation of membranes: Confluent rat basophil leukaemia (RBL-2H3) cells stably expressing CCR3 are removed from tissue culture flasks using enzyme-free cell dissociation buffer and resuspended in phosphate-buffered saline. […] The resulting scintillations are counted using a Canberra Packard TOPCOUNT™ scintillator counter, each well being counted for 1 minute. […]

Molecule `CN(CCCCNC(=O)Nc1ccc(F)c(F)c1)Cc1ccc(F)cc1` [Example 2, 1-(3,4-difluorophenyl)-3-{4-[(4-fluorobenzyl)methylamino]-butyl}-urea] registered an IC50 of 49 nM.

The molecule `Cc1noc(C)c1NC(=O)NCCCCN(C)Cc1ccc(F)cc1` [Example 1, 1-(3,5-Dimethyl-isoxazole-4-yl)-3-[4-[(4-fluorobenzyl)methylamino]-butyl]-urea] gave an IC50 of 1540 nM.
